{"source": "patent US20110195111A1", "about": "“AQUEOUS COMPOSITIONS AND METHODS” (NATIVIS, INC., priority 2009, published 2011)", "test_system": "U-87 glioblastoma cells", "test": "U-87 glioblastoma flank tumor growth in mice", "format": "in vivo", "conditions": "U-87 flank tumors in mice, 24-day period; untreated about 650 mm^3 (FIG. 11)", "description": "The ability of water exposed to a taxane signal to inhibit a glioblastoma tumor in an animal model was investigated. In this study, nine groups of 8 mice were each injected in the right flank with 7.355×10^6 U-87 glioblastoma cells, and treatment with the various modalities was begun either one day after inoculating the animals with the cells, or when the tumors reached 75-100 mm^3.\nPaclitaxel was initially dissolved in a 1:1 v/v mixture of CremaphorEL and ethanol and stored at 4° C. Final dilution of the drug to a concentration of 1.5 mg/ml was made with 0.9% NaCl immediately before use. In Groups 3 and 4, the paclitaxel was administered by intravenous injection into the tail vein at a dose of 15/mg/kg animal weight on each of five consecutive days. The actual volume administered to each animal was about 0.2 ml of the above paclitaxel formulation.\nAnimals in Groups 5 and 6 received 20 ml/kg (or about 0.5 ml) of water exposed to taxane signal prepared as described in Section VII, with the Range 1 magnetic field. […]\nFor all groups, tumor volumes were measured every other day by serial caliper measurements to determine tumor width and length, and calculating an approximate tumor volume from the formula: Tumor volume=(length×width^2)/2.", "data": [{"compound": "CC(=O)O[C@H]1C(=O)[C@@]2(C)[C@H]([C@H](OC(=O)c3ccccc3)[C@]3(O)C[C@H](OC(=O)[C@H](O)[C@@H](NC(=O)c4ccccc4)c4ccccc4)C(C)=C1C3(C)C)[C@]1(OC(C)=O)CO[C@@H]1C[C@@H]2O", "note": "[paclitaxel]", "values": [{"measurement": "increase in tumor volume over the study period, untreated versus treated animals", "value": "more than twice as high in untreated"}]}]}
